Measured values as given in article PMC7217877, “N-AS-triggered SPMs are direct regulators of microglia in a model of Alzheimer’s disease” (Nature Communications, 2020).
Numbering of substitutions follows the chain as printed. Several values for one entry are separate records, joined by “and”; a condition that tells them apart may be missing. Identical values can stand only once.

Legend:
Test in all cases: filter binding assay of [14C] N-AS to COX2
COX2 S567A = biological target: T1, COX2 S567A (Homo sapiens, UniProt P35354, S567A); details: replicates
T1 construct: His (N); made in house
T1 sequence (P35354 18-604 S567A): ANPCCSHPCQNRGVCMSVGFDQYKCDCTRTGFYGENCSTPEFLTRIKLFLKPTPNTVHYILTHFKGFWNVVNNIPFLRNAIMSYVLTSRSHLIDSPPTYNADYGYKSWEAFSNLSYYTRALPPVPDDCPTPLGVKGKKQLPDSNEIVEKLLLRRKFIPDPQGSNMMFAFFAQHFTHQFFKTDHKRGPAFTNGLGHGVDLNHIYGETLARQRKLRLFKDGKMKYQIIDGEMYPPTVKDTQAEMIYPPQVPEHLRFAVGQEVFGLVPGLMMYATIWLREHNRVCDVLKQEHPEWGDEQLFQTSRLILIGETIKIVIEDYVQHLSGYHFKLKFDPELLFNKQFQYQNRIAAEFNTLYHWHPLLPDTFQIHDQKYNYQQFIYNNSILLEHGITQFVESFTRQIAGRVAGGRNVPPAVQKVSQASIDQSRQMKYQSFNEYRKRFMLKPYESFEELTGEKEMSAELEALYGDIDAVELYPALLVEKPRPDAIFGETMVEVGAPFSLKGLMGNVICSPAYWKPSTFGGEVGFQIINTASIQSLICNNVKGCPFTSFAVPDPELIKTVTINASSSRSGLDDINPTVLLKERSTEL
From the text: (§1) Single point mutations in SphK1 (R56A, R57A, R24A, R185A, D178A, and F192A) and COX2 (S565A, N181A, T564A, and S567A) were generated using the In-Fusion Cloning Kits (Clontech) and ORF cDNA expression plasmids of human SphK1 and COX2 gene (Sino Biological Inc, HG15679-NH and HG12036-NH), according to the manufacturer’s instructions. The forward and reverse primers described in Supplementary Table 4. The SphK1 WT, SphK1 mutants, COX2 WT, and COX2 mutant plasmids were transformed in the One shot TOP 10 competent cell (Invitrogen). The bacteria were grown in Luria-Bertani (LB, Invitrogen) plates supplemented with 50 μg ml^−1 kanamycin (Sigma-Aldrich) at 37 °C. The bacterial cell pellets were resuspended in lysis buffer containing 20 mM sodium phosphate (GE Healthcare), 500 mM NaCl (GE Healthcare), 20 mM imidazole (pH 7.4) (GE Healthcare), 0.2 mg ml^−1 lysozyme (Sigma-Aldrich), 20 μg ml^−1 DNase I (Roche), 1 mM MgCl2 (Sigma-Aldrich), and 1 mM PMSF (Sigma-Aldrich) before being lysed by sonication and clarified by centrifugation at 15,493×g for 10 min. Proteins were purified from the soluble fraction using His-Spin Trap columns (GE Healthcare) and the binding and acetylation assays were performed.
(§2) Briefly, SphK1 WT and mutant enzymes (1 mU) were resuspended in 100 μl reaction buffer (20 mM HEPES; pH 7.4, 50 mM NaCl, 10 mM MgCl2, 1 mM EGTA, 0.02% Triton-X100, and 100 μM sphingosine, all from Sigma-Aldrich). […] Briefly, COX2 WT and mutant enzymes (1 mU) were resuspended in 100 μl reaction buffer (20 mM HEPES; pH 7.4, 50 mM NaCl, 10 mM MgCl2, 1 mM EGTA, and 0.02% Triton-X100, all from Sigma-Aldrich). Reactions were initiated by adding [^14C] N-AS (1–200 μM (0.1–20 μCi), ARC UK Ltd, ARC-1024) and incubated at 37 °C for 1 h. The reactions were terminated by adding 100 μl of ice-cold reaction buffer containing 5 mM cold N-AS and immediately filtered through P30 filtermat (Perkin-Elmer), followed by five washes.
(§3) The binding velocity was plotted and the Kcat and KM values were calculated from the Michaelis-Menten analysis using the Sigma-plot program (ver 10.0, Systat software Inc.).

COX2 WT = biological target: T2, COX2 WT (Homo sapiens, UniProt P35354); details: COX2 Control, replicates
T2 construct: His (N); made in house
T2 sequence (P35354 18-604): T1 sequence (P35354 18-604 S567A) with A550S
From the text: as §1, §2, §3

COX2 S565A = biological target: T3, COX2 S565A (Homo sapiens, UniProt P35354, S565A); details: replicates
T3 construct: His (N); made in house
T3 sequence (P35354 18-604 S565A): T1 sequence (P35354 18-604 S567A) with S548A, A550S
From the text: as §1, §2, §3

Question: What does the source list for `CCCCCCCCCCCCC/C=C/[C@@H](O)[C@H](CO)NC(C)=O` [N-AS, N-((2S,3R,E)-1,3-Dihydroxyoctadec-4-en-2-yl)acetamide]?
Answer: binding velocity (Vbinding) (COX2 S567A; 0.2 uM): 0.844 nM/min and 0.872 nM/min and 0.519 nM/min; binding velocity (Vbinding) (COX2 S567A; 1 uM): 1.046 nM/min; binding velocity (Vbinding) (COX2 WT; 1 uM (100 pmol)): 0.888 nM/min and 1.293 nM/min and 0.920 nM/min; binding velocity (Vbinding) (COX2 WT; 5 uM (500 pmol)): 5.664 nM/min and 7.362 nM/min and 11.711 nM/min; binding velocity (Vbinding) (COX2 WT; 10 uM (1000 pmol)): 14.955 nM/min and 10.446 nM/min and 14.278 nM/min; binding velocity (Vbinding) (COX2 WT; 20 uM (2000 pmol)): 30.848 nM/min and 29.462 nM/min and 25.197 nM/min; binding velocity (Vbinding) (COX2 WT; 100 uM (10000 pmol)): 52.281 nM/min and 47.667 nM/min and 52.002 nM/min; binding velocity (Vbinding) (COX2 WT; 200 uM (20000 pmol)): 58.338 nM/min and 57.809 nM/min and 65.044 nM/min; binding velocity (Vbinding) (COX2 S565A; 1 uM): 0.294 nM/min and 0.145 nM/min and 0.375 nM/min; binding velocity (Vbinding) (COX2 S565A; 5 uM): 4.092 nM/min and 3.850 nM/min and 4.567 nM/min; binding velocity (Vbinding) (COX2 S565A; 10 uM): 6.171 nM/min and 6.000 nM/min and 6.819 nM/min; binding velocity (Vbinding) (COX2 S565A; 20 uM): 11.138 nM/min and 12.964 nM/min and 8.904 nM/min; binding velocity (Vbinding) (COX2 S565A; 100 uM): 19.545 nM/min and 19.934 nM/min and 20.173 nM/min; binding velocity (Vbinding) (COX2 S565A; 200 uM): 28.985 nM/min and 29.725 nM/min and 29.810 nM/min
